Experimental data taken from US9612237B2, “Ritalinic acid immunoassay” (Randox Laboratories Limited, priority 2013, dated 2017).
Structures can show the parent of a compound that is named as a salt. Where two headings read alike, the source gives them in different places.

Tested on: antisera generated in response to immunogen of Example 11
Test: Competitive chemiluminescent biochip immunoassay, antisera raised against immunogen of Example 11, conjugate of Example 12
Assay type: binding, sheep
Settings: for % cross reactivity: biochip, relative to methylphenidate = 100
[1] = value is the concentration at which no cross-reactivity was exhibited

Structure (SMILES)	Concentration exhibiting no cross-reactivity [1]	further results
CNCC1CCCCC1(O)c1cccc(O)c1 (racemic) [rac N,O-didesmethyl tramadol]	0.18 µg/mL	
COc1cccc(C2(O)CCCCC2CN)c1.Cl (racemic) [rac N-bisdesmethyl tramadol HCl]	0.18 µg/mL	
CC(C(=O)O)c1ccc(CC(C)(C)O)cc1 (racemic) [rac-2-hydroxy ibuprofen]	125 µg/mL	
CCOC(=O)[C@@H](c1ccccc1)[C@H]1CCCCN1.Cl (racemic) [rac-erythro-ethylphenidate HCl]		% cross reactivity: 1.9%
CCC(=O)OC(Cc1ccccc1)(c1ccccc1)C(C)CNC.O=C(O)/C=C\C(=O)O (single isomer, unassigned; (+)) [(+)-norpropoxyphene maleate]	10 µg/mL	
CN1CCCC1c1cccnc1 (single isomer, unassigned; (-)) [(−)-nicotine]		Concentration exhibiting no cross-reactivity: 22 µg/mL
Oc1cccc(N2CCNCC2)c1 [1-(3-hydroxyphenyl)-piperazine]		Concentration exhibiting no cross-reactivity: 0.4 µg/mL
c1ccc(CN2CCNCC2)cc1 [1-benzylpiperiazine]	10 µg/mL	
O=C(O)c1cccc(O)c1O [2,3-dihydroxy benzoic acid]	250 µg/mL	
CC(=O)Nc1ccc(O)c(SC[C@H](NC(C)=O)C(=O)[O-])c1.[Na+] [3-(N-acetyl-L-cystein-s-yl) acetaminophen sodium salt]		Concentration exhibiting no cross-reactivity: 250 µg/mL
CC(=O)Nc1ccc(O)c(SC[C@H](N)C(=O)O)c1.O=C(O)C(F)(F)F [3-cysteinylacetaminophen trifluoroacetic acid salt]		Concentration exhibiting no cross-reactivity: 250 µg/mL
COc1ccc2c(c1)[C@@]13CCCC[C@H]1[C@@H](C2)NCC3.Cl [3-methoxymorphinan HCl]	0.25 µg/mL	
CC(=O)Nc1ccc(O[C@@H]2O[C@H](C(=O)[O-])[C@@H](O)[C@H](O)[C@H]2O)cc1.[Na+] [4-acetamidophenyl β-D-glucuronide sodium salt]	250 µg/mL	
CC(=O)Nc1ccc(OS(=O)(=O)[O-])cc1.[K+] [4-acetaminophen sulphate potassium salt]		Concentration exhibiting no cross-reactivity: 250 µg/mL
Nc1ccc(C(=O)O)c(O)c1 [4-aminosalicylic acid]	250 µg/mL	
CN1C(=O)CN=C(c2ccccc2F)c2cc(N)ccc21 [7-NH flunitrazepam]	10 µg/mL	
CN[C@@H](C)[C@@H](O)c1ccccc1.Cl [(+)-pseudoephedrine HCl]		% cross reactivity: 0.2%
CC(C)Cc1ccc([C@@H](C)C(=O)O)cc1 [(R)-(−)-ibuprofen]	250 µg/mL	
CN(C)CCC[C@]1(c2ccc(F)cc2)OCc2cc(C#N)ccc21.O=C(O)C(=O)O [(R)-citalopram oxalate]	1.5 µg/mL	
CN1C(=O)CC[C@H]1c1cccnc1 [(−)-cotinine]	22 µg/mL	
C[C@H](N)Cc1ccccc1 [D-amphetamine]	10 µg/mL	
O=C[C@H](O)[C@@H](O)[C@H](O)[C@H](O)C(=O)O [D-glucuronic acid]	60 µg/mL	
CCN(CC)C(=O)[C@@H]1C=C2c3cccc4[nH]cc(c34)C[C@H]2N(C)C1 [LSD]	10 µg/mL	
CN[C@@H](C)Cc1ccccc1 [MAMP]	2.5 µg/mL	
CNC(C)Cc1ccc2c(c1)OCO2 (stereo not shown) [MDMA]	5 µg/mL	
CC(=O)N=C1C=CC(=O)C=C1 [N-acetylbenzoquinomeimine]	125 µg/mL	
Oc1ccc2c(c1)[C@@]13CCCC[C@H]1[C@@H](C2)NCC3 [N-desmethyl dextorphan]	0.25 µg/mL	
Br.CNCCC[C@@]1(c2ccc(F)cc2)OCc2cc(C#N)ccc21 [N-desmethyl escitalopram hydrobromide]	10 µg/mL	

Structure (SMILES)	Concentration exhibiting no cross-reactivity [1]	further results
Cl.NC1CCC(c2ccc(Cl)c(Cl)c2)c2ccccc21 (stereo not shown) [N-desmethyl sertraline HCl]		Concentration exhibiting no cross-reactivity: 10 µg/mL
c1ccc(C2(N3CCCCC3)CCCCC2)cc1 [PCP]		% cross reactivity: <0.1%
CC(C)Cc1ccc(C(C)C(=O)O)cc1 (stereo not drawn) [S-(+)-ibuprofen]	250 µg/mL	
CC(=O)Oc1ccccc1C(=O)O [aspirin]	250 µg/mL	
CC(=O)Nc1ccc(OC(=O)c2ccccc2OC(C)=O)cc1 [benorylate HCl]	250 µg/mL	
O=C(O)c1ccccc1 [benzoic acid]	250 µg/mL	
COc1ccc2c3c1O[C@H]1[C@@H](O)C=C[C@H]4[C@@H](C2)N(C)CC[C@@]341 [codeine]	0.25 µg/mL	
CCCCCc1cc(O)c2c(c1)OC(C)(C)[C@@H]1CCC(C)=C[C@@H]21 [delta-9-THC]	10 µg/mL	
COc1ccc2c(c1)[C@]13CCCC[C@@H]1[C@H](C2)N(C)CC3 [dextromethorphan hydrobromide monohydrate]	10 µg/mL	
CN1C(=O)CN=C(c2ccccc2)c2cc(Cl)ccc21 [diazepam]		Concentration exhibiting no cross-reactivity: 3 µg/mL
O=C(O)c1cc(-c2ccc(F)cc2F)ccc1O [diflusinal]	250 µg/mL	
CCc1nn(CCCN2CCN(c3cccc(Cl)c3)CC2)c(=O)n1CC [etoperidone HCl]	0.4 µg/mL	
CNCCC(Oc1ccc(C(F)(F)F)cc1)c1ccccc1 (stereo not shown) [fluoxetine HCl]	10 µg/mL	
CCN(CC)CCN1C(=O)CN=C(c2ccccc2F)c2cc(Cl)ccc21 [flurazepam]		% cross reactivity: <1%
O=C(O)c1cc(O)ccc1O [gentisic acid]	250 µg/mL	
O=C(O)CNC(=O)c1cc(O)ccc1O [gentisuric acid]	250 µg/mL	
CC(=O)Oc1ccc2c3c1O[C@H]1[C@@H](OC(C)=O)C=C[C@H]4[C@@H](C2)N(C)CC[C@@]341 [heroin]	10 µg/mL	
COc1ccc2c3c1O[C@H]1C(=O)CC[C@H]4[C@@H](C2)N(C)CC[C@]314 [hydrocodone]	10 µg/mL	
CC(C)Cc1ccc(CC(=O)O)cc1 [ibufenac]	250 µg/mL	
CC(Cc1ccc(C(C)C(=O)O)cc1)C(=O)O (stereo not shown) [ibuprofen carboxylic acid]	250 µg/mL	
CC(C(=O)O)c1cccc(C(=O)c2ccccc2)c1 (stereo not shown) [ketoprofen]	250 µg/mL	
CN1CC[C@]23CCCC[C@H]2[C@H]1Cc1ccc(O)cc13 [levorphanol]	0.25 µg/mL	
O=C1Nc2ccc(Cl)cc2C(c2ccccc2Cl)=NC1O (stereo not shown) [lorazepam]	3 µg/mL	
CCC(C)C(C)(COC(N)=O)COC(N)=O (stereo not shown) [mebutamate]	0.35 µg/mL	
CCCC(C)(COC(N)=O)COC(N)=O [meprobamate]	10 µg/mL	
COc1ccc(NC(C)=O)cc1 [methacetin]	250 µg/mL	
CCC(=O)C(CC(C)N(C)C)(c1ccccc1)c1ccccc1 (stereo not shown) [methadone]	10 µg/mL	
